Experimental data reported in article PMC4539421, “A Novel Microbisporicin Producer Identified by Early Dereplication during Lantibiotic Screening” (BioMed Research International, 2015).
No end group written: not given here.

Assays:
L1400 S. aureus MRSA = assay: MIC by broth microdilution, MRSA; type: cell-based, Staphylococcus aureus; details: broth microdilution assay [27]; MRSA clinical isolate
Description: (§1) Broth and mycelium screening extracts from the F.I.I.R.V. collection of Actinoallomurus strains isolated according as above were screened in liquid microplate assays for their antimicrobial activity on S. aureus 209 ATCC 6538P (L100) and to its L-form cells (L3751), as described in detail in [7]. In brief, S. aureus 209 ATCC 6538P (L100) and its L-form cells (L3751) were maintained at −80°C in Nutrient Broth (Difco) to which 20% (v/v) glycerol was added. EBH/S supplemented with 5% (v/v) horse serum was used as medium. For the wild-type inoculum, 10 μL of extracts previously dissolved in DMSO : H2O 1 : 9 (v/v) were added to 1 × 10^5 CFU/mL in 90 μL of culture broth. For L-form cells, aliquots of liquid cultures grown overnight in EBHI/S to O.D.620 nm = 0.2 were used as inoculum. Incubation time was 24 h at 35°C in air, and then growth inhibition was measured at O.D.620 nm. Reference actagardine, planosporicin, microbisporicin, mersacidin, and nisin standards were used and MIC levels were determined by broth microdilution assay as recommended by the National Committee for Clinical Laboratory Standards. To identify β-lactam producers, antimicrobial activity versus S. aureus 209 ATCC 6538P (L100) was measured in a liquid microplate assay after adding the following cocktail of β-lactamases: Penicillase Type I from Bacillus cereus (Sigma P0389), 0.001 U/mL; Penicillase Type II from Bacillus cereus (Sigma P6018), 0.002 U/mL; Penicillase type III from Enterobacter cloacae (Sigma P4399), 0.0025 U/mL; and Penicillase type IV from Enterobacter cloacae (Sigma P4524), 0.5 U/mL. To identify glycopeptide producers, antimicrobial activity versus S. aureus 209 ATCC 6538P (L100) was measured in a liquid microplate assay after adding 2 mg/mL of Ac-Lys-D-alanyl-D-alanine (Chem-Impex International Inc., IL).
(§2) Antimicrobial activity was determined by broth microdilution assay according to standard guidelines. The growth media utilized to determine the MIC were cation-adjusted Difco Mueller Hinton Broth (MHB) for Staphylococci, Enterococci, and E. coli, Todd Hewitt Broth (THB) for Streptococci, and RPMI-1640 medium (RPMI) for C. albicans. Typically, a twofold serial dilution of the test compound was performed in a sterile 96-well microplate inoculated with 10^4 CFU/mL of the test strain in the appropriate medium. The microplate was then incubated for 18–24 h at 35°C.

L3751 S. aureus L-form = assay: MIC by broth microdilution, S. aureus L-form; type: cell-based, Staphylococcus aureus; details: broth microdilution assay [27]; L-form cells
Description: Staphylococcus aureus 209 ATCC 6538P (L100) were purchased from the American Type Culture Collection (ATCC; Manassas VA). L-form cells (L3751) were prepared from L100 by exposure to 100 U of penicillin in Enterococcal Brain Heart Infusion/S (EBH/S) supplemented with 5% NaCl, 5% sucrose, and 10% horse serum as previously described. L-forms were then cultured on similarly supplemented brain heart infusion agar containing no antibiotic. S. aureus Smith ATCC19636 (L819), Streptococcus pyogenes C203 ATCC12384 (L49), and other clinical isolates (S. aureus L1400, Enterococcus faecalis L559, Enterococcus faecalis Van A L560, Escherichia coli SKF12140 L47, and Candida albicans SKF2270 L145) were maintained in the Fondazione Istituto Insubrico Ricerca per la Vita (F.I.I.R.V.) culture collection (L collection) at Gerenzano, Italy.
as §1
(§3) Antimicrobial activity was determined by broth microdilution assay according to standard guidelines. […]

L100 S. aureus ATCC6538P = assay: MIC by broth microdilution, S. aureus; type: cell-based, Staphylococcus aureus; details: broth microdilution assay [27]
Description: as §1, §2

L49 S. pyogenes = assay: MIC by broth microdilution, S. pyogenes; type: cell-based, Streptococcus pyogenes; details: broth microdilution assay [27]
Description: as §1, §3

L145 C. albicans = type: cell-based, Candida albicans; details: broth microdilution assay [27]
Description: as §1, §3

L47 E. coli = type: cell-based, Escherichia coli; details: broth microdilution assay [27]
Description: as §1, §3

S. aureus = assay: Bioautography of HPLC fractions, S. aureus; type: cell-based, Staphylococcus aureus; details: 1 mL HPLC fractions dried, resuspended in 100 μL 10% DMSO, 10 μL tested
Description: (§4) For bioautography, fractions (1 mL, eluting at 1 mL/min) from the HPLC column were collected, dried, and resuspended in 100 μL aqueous solution at 10% (v/v) DMSO. 10 μL were tested for antimicrobial activity. UV and mass spectra of molecules present in the active fractions were compared with those collected in the ABL database, which contains data on approximately 30,000 microbial metabolites collected from literature and patents since 1950 [20, 28], and in the commercially available Antibase (http://wwwuser.gwdg.de/~hlaatsc/antibase.htm).

S. aureus L-form L3751 = assay: Bioautography of HPLC fractions, S. aureus L-form; type: cell-based, Staphylococcus aureus; details: 1 mL HPLC fractions dried, resuspended in 100 μL 10% DMSO, 10 μL tested
Description: as §4

Substance	MIC (L1400 S. aureus MRSA) [mg/L]	MIC (L3751 S. aureus L-form) [mg/L]	MIC (L100 S. aureus ATCC6538P) [mg/L]	MIC (L49 S. pyogenes) [mg/L]	MIC (L145 C. albicans) [mg/L]	MIC (L47 E. coli) [mg/L]	Growth inhibition by HPLC fraction (bioautography) (S. aureus)	Growth inhibition by HPLC fraction (bioautography) (S. aureus L-form L3751)
Mersacidin (CTFTLPGGGGVCTLTSECIC; also: lantibiotic mersacidin, thioether rings not placed; UniProt P43683 49-68, looked up) [lantibiotic standard]	8	64	4	–	–	–	–	–
Actagardine	16	>128	32	2	>128	>128	–	–
Planosporicin	16	>128	2	<1	>128	>128	–	–
Microbisporicin	≤0.13	>128	≤0.13	<1	>128	>128	–	–
Microbisporicin A2	–	–	–	–	–	–	inhibits the microbial growth	but not its L-form
